Results taken from patent US9238039B2, “Pyrazolo[1,5-A]pyrimidines for antiviral treatment” (Gilead Sciences, Inc., priority 2010, dated 2016).

Test system: RSV strain A2
Test: RSV antiviral cytoprotection assay in Hep2 cells (96-well and 384-well format, Cell TiterGlo read-out)
Format: cell-based, Respiratory Syncytial Virus (RSV)
Conditions: human respiratory syncytial virus, HEp-2, 0.5 uM; RSV-induced cytopathic effect in Hep2 cells; calculated from fitted dose response curve, normalized to 0% and 100%

SMILES | inhibition at 0.5 µM [%]
Cc1cn2nc([C@@H]3CCCCN3C(=O)c3cc(Cl)ccc3NS(C)(=O)=O)cc2nc1N1CCC(C#N)CC1 [Compound 215] | 99
Cc1cn2nc([C@@H]3CCCCN3C(=O)c3cc(Cl)ccc3NS(C)(=O)=O)cc2nc1N1CCC(N)CC1 [Compound 216] | 100
Cc1cn2nc([C@@H]3CCCCN3C(=O)c3cc(Cl)ccc3NS(C)(=O)=O)cc2nc1N1CCCC(O)C1 (stereo partly shown) [Compound 217] | 89
Cc1cn2nc([C@@H]3CCCCN3C(=O)c3cc(Cl)ccc3NS(C)(=O)=O)cc2nc1N1CCC(O)CC1 [Compound 218] | 72
Cc1cn2nc([C@@H]3CCCCN3C(=O)c3cc(Cl)ccc3NC(=O)C3CC3)cc2nc1N1CC[C@H](N)C1 [Compound 219] | 100
COC(=O)Nc1ccc(Cl)cc1C(=O)N1CCCC[C@H]1c1cc2nc(N3CC[C@H](N)C3)c(C)cn2n1 [Compound 220] | 100
CC(=O)Nc1ccc(C)cc1C(=O)N1CCCC[C@H]1c1cc2nc(N3CC(O)C3)c(C)cn2n1 [Compound 221] | 100
CC(=O)Nc1ccc(C)cc1C(=O)N1CCCC[C@H]1c1cc2nc(N3CC(N)C3)c(C)cn2n1 [Compound 222] | 100
CC(=O)Nc1ccc(Cl)cc1C(=O)N1CCCC[C@H]1c1cc2nc(N3CC[C@H](N)C3)c(C)cn2n1 [Compound 223] | 100
CC(=O)Nc1ccc(Cl)cc1C(=O)N1CCCC[C@H]1c1cc2nc(N3CC(O)C3)c(C)cn2n1 [Compound 224] | 100
Cc1cn2nc([C@@H]3CCCCN3C(=O)c3c(C)cccc3NS(C)(=O)=O)cc2nc1N1CCC1 [Compound 225] | 100
CC(C)(C)OC(=O)N1CCN(c2cc(C3CC3)nc3cc([C@@H]4CCCCN4C(=O)c4cc(Cl)ccc4NS(C)(=O)=O)nn23)CC1 [Compound 226] | 100
CS(=O)(=O)Nc1ccc(Cl)cc1C(=O)N1CCCC[C@H]1c1cc2nc(N3CCC3)cc(N3CC[C@H](N)C3)n2n1 [Compound 227] | 100
CS(=O)(=O)Nc1ccc(Cl)cc1C(=O)N1CCCC[C@H]1c1cc2nc(N3CC[C@@H](C#N)C3)cc(N3CCOCC3)n2n1 [Compound 228] | 100
Cc1cn2nc([C@@H]3CCCCN3C(=O)c3cc(Cl)ccc3NS(C)(=O)=O)cc2nc1N1CCC[C@@H](N)C1 [Compound 231] | 98
Cc1cn2nc([C@@H]3CCCCN3C(=O)c3cc(Cl)ccc3NS(C)(=O)=O)cc2nc1N1CC[C@@H](N)C1 [Compound 232] | 100
CS(=O)(=O)Nc1ccc(Cl)cc1C(=O)N1CCCC[C@H]1c1cc2nc(N3CCC3)cc(N3CCC(N)CC3)n2n1 [Compound 233] | 100
Cc1cn2nc([C@@H]3CCCCN3C(=O)c3cc(Cl)ccc3NS(C)(=O)=O)cc2nc1NCCNCCO [Compound 235] | 99
Cc1ccc(NS(C)(=O)=O)c(C(=O)N2CCCC[C@H]2c2cc3nc(C)c(C)c(N4CCCCC4)n3n2)c1 [Compound 236] | 98
Cc1cc(C2CC2)nc2cc([C@@H]3CCCCN3C(=O)C(NC(=O)OC(C)(C)C)c3ccccc3Br)nn12 (stereo partly shown) [Compound 237] | 99

Same assay, conditions: human respiratory syncytial virus, HEp-2, RSV-induced cytopathic effects, Hep2 cells; class symbols

SMILES | EC50 [nM]
Cc1cn2nc([C@@H]3CCCCN3C(=O)c3cc(Cl)ccc3NS(C)(=O)=O)cc2nc1N1CCC(C#N)CC1 [Compound 215] | 0.1 to 100
Cc1cn2nc([C@@H]3CCCCN3C(=O)c3cc(Cl)ccc3NS(C)(=O)=O)cc2nc1N1CCC(N)CC1 [Compound 216] | 0.1 to 100
Cc1cn2nc([C@@H]3CCCCN3C(=O)c3cc(Cl)ccc3NS(C)(=O)=O)cc2nc1N1CCCC(O)C1 (stereo partly shown) [Compound 217] | 101 to 1000
Cc1cn2nc([C@@H]3CCCCN3C(=O)c3cc(Cl)ccc3NS(C)(=O)=O)cc2nc1N1CCC(O)CC1 [Compound 218] | 101 to 1000
Cc1cn2nc([C@@H]3CCCCN3C(=O)c3cc(Cl)ccc3NC(=O)C3CC3)cc2nc1N1CC[C@H](N)C1 [Compound 219] | 0.1 to 100
COC(=O)Nc1ccc(Cl)cc1C(=O)N1CCCC[C@H]1c1cc2nc(N3CC[C@H](N)C3)c(C)cn2n1 [Compound 220] | 0.1 to 100
CC(=O)Nc1ccc(C)cc1C(=O)N1CCCC[C@H]1c1cc2nc(N3CC(O)C3)c(C)cn2n1 [Compound 221] | 0.1 to 100
CC(=O)Nc1ccc(C)cc1C(=O)N1CCCC[C@H]1c1cc2nc(N3CC(N)C3)c(C)cn2n1 [Compound 222] | 0.1 to 100
CC(=O)Nc1ccc(Cl)cc1C(=O)N1CCCC[C@H]1c1cc2nc(N3CC[C@H](N)C3)c(C)cn2n1 [Compound 223] | 0.1 to 100
CC(=O)Nc1ccc(Cl)cc1C(=O)N1CCCC[C@H]1c1cc2nc(N3CC(O)C3)c(C)cn2n1 [Compound 224] | 0.1 to 100
Cc1cn2nc([C@@H]3CCCCN3C(=O)c3c(C)cccc3NS(C)(=O)=O)cc2nc1N1CCC1 [Compound 225] | 0.1 to 100
CC(C)(C)OC(=O)N1CCN(c2cc(C3CC3)nc3cc([C@@H]4CCCCN4C(=O)c4cc(Cl)ccc4NS(C)(=O)=O)nn23)CC1 [Compound 226] | 0.1 to 100
CS(=O)(=O)Nc1ccc(Cl)cc1C(=O)N1CCCC[C@H]1c1cc2nc(N3CCC3)cc(N3CC[C@H](N)C3)n2n1 [Compound 227] | 0.1 to 100
CS(=O)(=O)Nc1ccc(Cl)cc1C(=O)N1CCCC[C@H]1c1cc2nc(N3CC[C@@H](C#N)C3)cc(N3CCOCC3)n2n1 [Compound 228] | 0.1 to 100
Cc1cn2nc([C@@H]3CCCCN3C(=O)c3cc(Cl)ccc3NS(C)(=O)=O)cc2nc1N1CCC[C@@H](N)C1 [Compound 231] | 0.1 to 100
Cc1cn2nc([C@@H]3CCCCN3C(=O)c3cc(Cl)ccc3NS(C)(=O)=O)cc2nc1N1CC[C@@H](N)C1 [Compound 232] | 0.1 to 100
CS(=O)(=O)Nc1ccc(Cl)cc1C(=O)N1CCCC[C@H]1c1cc2nc(N3CCC3)cc(N3CCC(N)CC3)n2n1 [Compound 233] | 0.1 to 100
Cc1cn2nc([C@@H]3CCCCN3C(=O)c3cc(Cl)ccc3NS(C)(=O)=O)cc2nc1NCCNCCO [Compound 235] | 0.1 to 100
Cc1ccc(NS(C)(=O)=O)c(C(=O)N2CCCC[C@H]2c2cc3nc(C)c(C)c(N4CCCCC4)n3n2)c1 [Compound 236] | 0.1 to 100
Cc1cc(C2CC2)nc2cc([C@@H]3CCCCN3C(=O)C(NC(=O)OC(C)(C)C)c3ccccc3Br)nn12 (stereo partly shown) [Compound 237] | 0.1 to 100
